Test results taken from patent US4175081A, “5-Substituted thiadiazole ureas” (priority 1977, dated 1979).

Legend:
Corn (CN) = test: Pre-emergence herbicide test; type: in vivo; conditions: Zea mays, 336 h, two weeks after treatment; for pest or weed control at 560.425 g/ha: 0.5 lb/acre; for pest or weed control at 1120.85 g/ha: 1 lb/acre; for pest or weed control at 2241.7 g/ha: 2 lb/acre; for pest or weed control at 4483.4 g/ha: 4 lb/acre
Summary of the method: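 Visual injury/control ratings were made 2 weeks post-spray on corn pots seeded (4 seeds, seed-diameter depth) the day before treatment. Application was a belt-hood spray of 38 gal/acre delivering 8 lbs active per acre, with a 4 lbs/acre rate also formulated. Watering was by sub-irrigation throughout.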

Turnip (TP) [1] = test: Pre-emergence herbicide test; type: in vivo, Brassica sp.; conditions: Brassica rapa, pre-emergence, 336 h, two weeks after treatment; for pest or weed control at 560.425 g/ha: 0.5 lb/acre; for pest or weed control at 1120.85 g/ha: 1 lb/acre; for pest or weed control at 2241.7 g/ha: 2 lb/acre; for pest or weed control at 4483.4 g/ha: 4 lb/acre
Summary of the method: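 In this pre-emergence greenhouse test, turnip was seeded on the surface of potting soil in 3' plastic pots, lightly covered with screened soil, and watered from below. One day later the pots were sprayed in a belt-fed spray hood. Watering continued only by sub-irrigation, and percent control was visually scored two weeks after treatment.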

Amaranth pigweed (PW) = test: Pre-emergence herbicide test; type: in vivo, Amaranthus retroflexus; conditions: 336 h, two weeks after treatment; for pest or weed control at 560.425 g/ha: 0.5 lb/acre; for pest or weed control at 1120.85 g/ha: 1 lb/acre; for pest or weed control at 2241.7 g/ha: 2 lb/acre; for pest or weed control at 4483.4 g/ha: 4 lb/acre
Summary of the method: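 Visual injury or control ratings were made at two weeks on pre-emergence pots, sub-irrigated in the greenhouse. Seeds were sown a day before a hood spray delivering 8 lbs/acre (or 4 lbs/acre) of compound in 38 gallons per acre.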

Johnson grass (JG) = test: Pre-emergence herbicide test; type: in vivo, Sorgum helepense; conditions: Sorghum halepense, 336 h, two weeks after treatment; for pest or weed control at 560.425 g/ha: 0.5 lb/acre; for pest or weed control at 1120.85 g/ha: 1 lb/acre; for pest or weed control at 2241.7 g/ha: 2 lb/acre; for pest or weed control at 4483.4 g/ha: 4 lb/acre
Summary of the method: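 Visual injury or control rating two weeks post-treatment, after pre-emergence spray of 8 or 4 lbs active per acre (38 gal/acre) onto pots sown the previous day. Greenhouse watering by sub-irrigation only.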

Crabgrass (CG) [2] = test: Post-emergence herbicide test; type: in vivo, Digitaria sanquinalis; conditions: Digitaria sanguinalis, post-emergence, 336 h, two weeks after treatment; for pest or weed control at 560.425 g/ha: 0.5 lb/acre; for pest or weed control at 1120.85 g/ha: 1 lb/acre; for pest or weed control: 2 lb/acre; for pest or weed control at 4483.4 g/ha: 4 lb/acre
Summary of the method: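 Crabgrass (Digitaria sanquinalis) was surface seeded individually in 3' plastic pots of potting soil, covered with screened soil, and watered by sub-irrigation in greenhouse trays. Planting was staggered so seedlings reached the target stage together. Post-emergence sprays were applied in a hood with a removable belt and fixed nozzle, and control was visually rated two weeks after treatment.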

Bean (BN) [3] = test: Post-emergence herbicide test; type: in vivo, Phaseolus vulgaris var. Black Valentine; conditions: Phaseolus vulgaris, post-emergence, 336 h, two weeks after treatment; for pest or weed control at 560.425 g/ha: 0.5 lb/acre; for pest or weed control at 1120.85 g/ha: 1 lb/acre; for pest or weed control at 2241.7 g/ha: 2 lb/acre; for pest or weed control at 4483.4 g/ha: 4 lb/acre
Summary of the method: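 Bean seedlings (Phaseolus vulgaris var. Black Valentine) were grown in potting soil in 3' pots until the primary leaves expanded. They were then sprayed under a hood with a removable belt and fixed nozzle, using 50 ml formulations. Afterward they were returned to the greenhouse and watered only by sub-irrigation. Percent control was judged visually two weeks after treatment.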

Cotton (CT) [4] = test: Pre-emergence herbicide test; type: in vivo, Gossypium hirsutum var. DPL smooth leaf; conditions: Gossypium hirsutum, 336 h, two weeks after treatment; for pest or weed control at 560.425 g/ha: 0.5 lb/acre; for pest or weed control at 1120.85 g/ha: 1 lb/acre; for pest or weed control at 2241.7 g/ha: 2 lb/acre; for pest or weed control at 4483.4 g/ha: 4 lb/acre
Summary of the method: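 Visual injury/control ratings were taken at two weeks post-spray. Pots seeded a day earlier received compound pre-emergence at 8 lbs/acre, or 4 lbs/acre, in a 38 gallon/acre spray volume, and were then held in the greenhouse, watered only from below.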

Cotton (CT) [5] = test: Post-emergence herbicide test; type: in vivo, Gossypium hirsutum var. DPL smooth leaf; conditions: Gossypium hirsutum, post-emergence, 336 h, two weeks after treatment; for pest or weed control at 560.425 g/ha: 0.5 lb/acre; for pest or weed control at 1120.85 g/ha: 1 lb/acre; for pest or weed control at 2241.7 g/ha: 2 lb/acre; for pest or weed control at 4483.4 g/ha: 4 lb/acre
Summary of the method: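 This greenhouse post-emergence test measured how well spray treatments controlled cotton. Seedlings of Gossypium hirsutum var. DPL smooth leaf, with expanded cotyledons and a first true leaf 1' in length, were sprayed with 50 ml formulations in a belt-fed spray hood. They were then returned to the greenhouse and watered only by sub-irrigation. Injury was scored visually as % control after two weeks.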

Turnip (TP) [6] = test: Post-emergence herbicide test; type: in vivo, Brassica sp.; conditions: Brassica rapa, post-emergence, 336 h, two weeks after treatment; for pest or weed control at 560.425 g/ha: 0.5 lb/acre; for pest or weed control at 1120.85 g/ha: 1 lb/acre; for pest or weed control at 2241.7 g/ha: 2 lb/acre; for pest or weed control at 4483.4 g/ha: 4 lb/acre
Summary of the method: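 A greenhouse post-emergence herbicide test on turnip. Seeds were sown on the surface of potting soil in 3' plastic pots, lightly covered with screened soil and watered from below. Planting was timed so seedlings had 1 or 2 true leaves above the cotyledons at spraying, done in a hood with a fixed nozzle. Control or injury was scored by eye after two weeks.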

Barnyard grass (BG) = test: Pre-emergence herbicide test; type: in vivo; conditions: Echinochloa crus-galli, 336 h, two weeks after treatment; for pest or weed control at 560.425 g/ha: 0.5 lb/acre; for pest or weed control at 1120.85 g/ha: 1 lb/acre; for pest or weed control at 2241.7 g/ha: 2 lb/acre; for pest or weed control at 4483.4 g/ha: 4 lb/acre
Summary of the method: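 Greenhouse pre-emergence spray test: pots seeded one day before treatment received compound at rates of 8 or 4 lb/acre (38 gal/acre). Visual injury/control scores for Echinochloa crus-galli taken at two weeks, with watering by sub-irrigation only.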

Bean (BN) [7] = test: Pre-emergence herbicide test; type: in vivo, Phaseolus vulgaris var. Black Valentine; conditions: Phaseolus vulgaris, 336 h, two weeks after treatment; for pest or weed control at 560.425 g/ha: 0.5 lb/acre; for pest or weed control at 1120.85 g/ha: 1 lb/acre; for pest or weed control at 2241.7 g/ha: 2 lb/acre; for pest or weed control at 4483.4 g/ha: 4 lb/acre
Summary of the method: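 Visual injury/control ratings were taken two weeks post-spray on sub-irrigated Phaseolus vulgaris var. Black Valentine. Pots were sown a day before treatment. Pre-emergence spray delivered 8 lbs actual compound per acre (or 4 lbs/acre) at 38 gallons per acre.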

Crabgrass (CG) [8] = test: Pre-emergence herbicide test; type: in vivo, Digitaria sanquinalis; conditions: Digitaria sanguinalis, pre-emergence, 336 h, two weeks after treatment; for pest or weed control at 560.425 g/ha: 0.5 lb/acre; for pest or weed control at 1120.85 g/ha: 1 lb/acre; for pest or weed control at 2241.7 g/ha: 2 lb/acre; for pest or weed control at 4483.4 g/ha: 4 lb/acre
Summary of the method: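 Crabgrass (Digitaria sanquinalis) was surface seeded in 3' plastic pots of potting soil, covered with screened soil, and watered by sub-irrigation in greenhouse trays. Pots were seeded one day before spraying in a hood with a moving belt and fixed nozzle. Plants stayed in the greenhouse on sub-irrigation, and pre-emergence control was rated visually two weeks after treatment.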

## CCS(=O)(=O)c1nnc(N(C)C(=O)NC)s1 [Example 91]
Corn (CN)
  pest or weed control at 560.425 g/ha: 10%
  pest or weed control at 1120.85 g/ha: 50%
  pest or weed control at 2241.7 g/ha: 50%
  pest or weed control at 4483.4 g/ha: 60%
Turnip (TP) [1]
  pest or weed control at 560.425 g/ha: 60%
  pest or weed control at 1120.85 g/ha: 60%
  pest or weed control at 2241.7 g/ha: 90%
  pest or weed control at 4483.4 g/ha: 100%
Amaranth pigweed (PW)
  pest or weed control at 560.425 g/ha: 40%
  pest or weed control at 1120.85 g/ha: 90%
  pest or weed control at 2241.7 g/ha: 100%
  pest or weed control at 4483.4 g/ha: 100%
Johnson grass (JG)
  pest or weed control at 560.425 g/ha: 50%
  pest or weed control at 1120.85 g/ha: 50%
  pest or weed control at 2241.7 g/ha: 60%
  pest or weed control at 4483.4 g/ha: 100%
Crabgrass (CG) [2]
  pest or weed control at 560.425 g/ha: 40%
  pest or weed control at 1120.85 g/ha: 60%
  pest or weed control: 70%
  pest or weed control at 4483.4 g/ha: 100%
Bean (BN) [3]
  pest or weed control at 560.425 g/ha: 100%
  pest or weed control at 1120.85 g/ha: 100%
  pest or weed control at 2241.7 g/ha: 100%
  pest or weed control at 4483.4 g/ha: 100%
Cotton (CT) [4]
  pest or weed control at 560.425 g/ha: 30%
  pest or weed control at 1120.85 g/ha: 50%
  pest or weed control at 2241.7 g/ha: 50%
  pest or weed control at 4483.4 g/ha: 90%
Cotton (CT) [5]
  pest or weed control at 560.425 g/ha: 100%
  pest or weed control at 1120.85 g/ha: 100%
  pest or weed control at 2241.7 g/ha: 100%
  pest or weed control at 4483.4 g/ha: 100%
Turnip (TP) [6]
  pest or weed control at 560.425 g/ha: 100%
  pest or weed control at 1120.85 g/ha: 100%
  pest or weed control at 2241.7 g/ha: 100%
  pest or weed control at 4483.4 g/ha: 100%
Barnyard grass (BG)
  pest or weed control at 560.425 g/ha: 30%
  pest or weed control at 1120.85 g/ha: 60%
  pest or weed control at 2241.7 g/ha: 90%
  pest or weed control at 4483.4 g/ha: 100%
Bean (BN) [7]
  pest or weed control at 560.425 g/ha: 10%
  pest or weed control at 1120.85 g/ha: 70%
  pest or weed control at 2241.7 g/ha: 70%
  pest or weed control at 4483.4 g/ha: 100%
Crabgrass (CG) [8]
  pest or weed control at 560.425 g/ha: 80%
  pest or weed control at 1120.85 g/ha: 90%
  pest or weed control at 2241.7 g/ha: 90%
  pest or weed control at 4483.4 g/ha: 100%

## CCCCS(=O)(=O)c1nnc(N(C)C(=O)NC)s1 [Example 92]
Corn (CN)
  pest or weed control at 560.425 g/ha: 10%
  pest or weed control at 1120.85 g/ha: 10%
  pest or weed control at 2241.7 g/ha: 10%
  pest or weed control at 4483.4 g/ha: 10%
Turnip (TP) [1]
  pest or weed control at 560.425 g/ha: 10%
  pest or weed control at 1120.85 g/ha: 60%
  pest or weed control at 2241.7 g/ha: 90%
  pest or weed control at 4483.4 g/ha: 90%
Amaranth pigweed (PW)
  pest or weed control at 560.425 g/ha: 10%
  pest or weed control at 1120.85 g/ha: 10%
  pest or weed control at 2241.7 g/ha: 30%
  pest or weed control at 4483.4 g/ha: 50%
Johnson grass (JG)
  pest or weed control at 560.425 g/ha: 10%
  pest or weed control at 1120.85 g/ha: 10%
  pest or weed control at 2241.7 g/ha: 30%
  pest or weed control at 4483.4 g/ha: 60%
Crabgrass (CG) [2]
  pest or weed control at 560.425 g/ha: 30%
  pest or weed control at 1120.85 g/ha: 30%
  pest or weed control: 90%
  pest or weed control at 4483.4 g/ha: 90%
Bean (BN) [3]
  pest or weed control at 560.425 g/ha: 70%
  pest or weed control at 1120.85 g/ha: 80%
  pest or weed control at 2241.7 g/ha: 90%
  pest or weed control at 4483.4 g/ha: 100%
Cotton (CT) [4]
  pest or weed control at 560.425 g/ha: 10%
  pest or weed control at 1120.85 g/ha: 10%
  pest or weed control at 2241.7 g/ha: 10%
  pest or weed control at 4483.4 g/ha: 10%
Cotton (CT) [5]
  pest or weed control at 560.425 g/ha: 100%
  pest or weed control at 1120.85 g/ha: 100%
  pest or weed control at 2241.7 g/ha: 100%
  pest or weed control at 4483.4 g/ha: 100%
Turnip (TP) [6]
  pest or weed control at 560.425 g/ha: 100%
  pest or weed control at 1120.85 g/ha: 100%
  pest or weed control at 2241.7 g/ha: 100%
  pest or weed control at 4483.4 g/ha: 100%
Barnyard grass (BG)
  pest or weed control at 560.425 g/ha: 10%
  pest or weed control at 1120.85 g/ha: 50%
  pest or weed control at 2241.7 g/ha: 70%
  pest or weed control at 4483.4 g/ha: 90%
Bean (BN) [7]
  pest or weed control at 560.425 g/ha: 10%
  pest or weed control at 1120.85 g/ha: 10%
  pest or weed control at 2241.7 g/ha: 10%
  pest or weed control at 4483.4 g/ha: 10%
Crabgrass (CG) [8]
  pest or weed control at 560.425 g/ha: 40%
  pest or weed control at 1120.85 g/ha: 60%
  pest or weed control at 2241.7 g/ha: 100%
  pest or weed control at 4483.4 g/ha: 100%
